Measurements from US10611771B2, “Pyrazolo [3,4-d] pyrimidine derivative” (WEST CHINA HOSPITAL, SICHUAN UNIVERSITY, priority 2016, dated 2020).
Several values for one entry are separate records, joined by “and”; a condition that tells them apart may be missing. Equal entries are not always repeated.

Tests used:
A549 cells = experiment: MTT detection method, inhibitory effect against A549 cells; type: cell-based
Excerpt: (§1) MTT detection method was used, and MTT is a yellow compound and a dye accepting hydrogen ions, and can be used as the respiratory chain in mitochondria of viable cells. Under the action of succinate dehydrogenase and cytochrome C, the tetrazolium ring broke to form blue formanzan crystal, and the formation amount of formanzan crystal was only directly proportional to the viable counts. The formanzan crystal formed by reduction can dissolve in dimethyl sulfoxide (DMSO), and the optical density (OD) value can be determined at 490 nm using ELISA, to reflect the viable counts.
(§2) • Lung cancer cell lines: A549 and H1299. • Experimental materials: lung cancer cell lines, instruments and tools for cell culture, MTT, the compound mother liquid (10 mmol/L), and the positive control drug Src inhibitor pp1. 1. Specific Method • (3-1) Cell lines A549 and H1299 were recovered, and when the cells were in good conditions, namely cells grew to about 80% after one passage (i.e. the logarithmic growth phase), the cells were planked (96-well plate). • (3-2) Firstly, cells were collected, and the concentration of cell suspension was adjusted with counting chamber. Cells were seeded in 96-well plate at 1000˜10000 cells/well, and the detailed cell numbers in each well were dependent on the growth rate of different cells and the action time of drugs. A549 cells were seeded at 5000 cells, while H1299 cells were also seeded at 5000 cells, 200 μl for each well (100 μl cell suspension+100 μl drug dilution at different concentration gradient). The edge wells (36) were added 200 μl culture media (for prevention of edge effect). • (3-3) After planking and adding drugs, the plate was treated at 24 h, 48 h, and 72 h, and then for coloration, each well was added 200 μl culture media containing 20 μl MTT solution (5 mg/mL). The plate was continually cultured for 1˜4 hours, the incubation was stopped, and the culture supernatant fluid in each well was carefully absorbed. For suspension cells, the culture supernatant fluid in each well need be centrifuged before drawing. 150 μl DMSO was added to each well, and the plate was shaken on a shaking table for 15˜20 min, to allow the crystals to be completely dissolved. • (3-4) Colorimetry: The colorimetry was performed by ELISA, and the optical absorption value of each well was tested at a wavelength of 490 nm or 570 nm, and the result was recorded. • (3-5) Calculation Inhibition ratio=(the control−the drug)/the control×100% • IC50 (50% inhibitory concentration) can be calculated by spass software based on the inhibitory ratio at different concentration. II. Experimental Results • A549 cells were treated at 4 h, 24 h, 48 h, 72 h, and the drug dose was divided into the light concentration group (10 μm, 25 μm, 40 μm) and the high concentration group (50 μm, 80 μm, 100 μm), that were seeded at 6000 cells/well and 5000 cells/well, respectively, to carry out the experiment.

H1299 cells = experiment: MTT detection method, inhibitory effect against H1299 cells; type: cell-based
Excerpt: as §1, §2
H1299 cells were seeded at 5000 cells/well, and after treatment for 4 h, 24 h, 48 h, and 72 h, the results were shown in Tables 5-9 and FIGS. 5-8: […]

Q: Which results are given for `CC(C)(C)n1nc(-c2ccc(OCCOCCOCCOCCO)cc2)c2c(N)ncnc21` [Compound 5, 2-(2-(2-(2-(4-(4-amino-1-tert-butyl-1H-pyrazolo[3,4-d]pyrimidin-3-)phenoxy)ethoxy)ethoxy)ethoxy)ethanol]?
A: The inhibitory ratio (%) for three parallel assays (A549 cells; 4 h, 10 μm): 26.88% and 26.25% and 28.75%; The mean inhibitory ratio (%) (A549 cells; 4 h, 10 μm): 27.29%; The mean inhibitory ratio (%) (A549 cells; 4 h, 25 μm): 21.77%; The inhibitory ratio (%) for three parallel assays (A549 cells; 4 h, 40 μm): 23.44% and 20.94% and 18.13%; The mean inhibitory ratio (%) (A549 cells; 4 h, 40 μm): 20.83%; The inhibitory ratio (%) for three parallel assays (A549 cells; 4 h, 50 μm): 16.57% and 11.14% and 14.57%; The mean inhibitory ratio (%) (A549 cells; 4 h, 50 μm): 14.10%; The inhibitory ratio (%) for three parallel assays (A549 cells; 4 h, 80 μm): 20.86% and 20.29% and 14.57%; The mean inhibitory ratio (%) (A549 cells; 4 h, 80 μm): 18.57%; The inhibitory ratio (%) for three parallel assays (A549 cells; 4 h, 100 μm): 24.00% and 20.86% and 22.57%; The mean inhibitory ratio (%) (A549 cells; 4 h, 100 μm): 22.48%; The inhibitory ratio (%) for three parallel assays (A549 cells; 24 h, 10 μm): 14.35% and 15.65% and 13.26%; The mean inhibitory ratio (%) (A549 cells; 24 h, 10 μm): 14.42%; The inhibitory ratio (%) for three parallel assays (A549 cells; 24 h, 25 μm): 22.39% and 13.70% and 14.78%; The mean inhibitory ratio (%) (A549 cells; 24 h, 25 μm): 16.96%; The inhibitory ratio (%) for three parallel assays (A549 cells; 24 h, 40 μm): 26.30% and 16.52% and 14.13%; The mean inhibitory ratio (%) (A549 cells; 24 h, 40 μm): 18.99%; The inhibitory ratio (%) for three parallel assays (A549 cells; 24 h, 50 μm): 17.08% and 18.33% and 17.92%; The mean inhibitory ratio (%) (A549 cells; 24 h, 50 μm): 17.78%; The inhibitory ratio (%) for three parallel assays (A549 cells; 24 h, 80 μm): 22.50% and 20.83% and 20.21%; The mean inhibitory ratio (%) (A549 cells; 24 h, 80 μm): 21.18%; The inhibitory ratio (%) for three parallel assays (A549 cells; 24 h, 100 μm): 27.92% and 27.50%; The mean inhibitory ratio (%) (A549 cells; 24 h, 100 μm): 27.78%; The mean inhibitory ratio (%) (A549 cells; 48 h, 10 μm): 9.64%; The inhibitory ratio (%) for three parallel assays (A549 cells; 48 h, 25 μm): 14.84% and 14.22% and 13.91%; The mean inhibitory ratio (%) (A549 cells; 48 h, 25 μm): 14.32%; The inhibitory ratio (%) for three parallel assays (A549 cells; 48 h, 40 μm): 19.22% and 26.72% and 20.63%; The mean inhibitory ratio (%) (A549 cells; 48 h, 40 μm): 22.19%; The inhibitory ratio (%) for three parallel assays (A549 cells; 48 h, 50 μm): 15.33% and 13.33% and 12.83%; The mean inhibitory ratio (%) (A549 cells; 48 h, 50 μm): 13.83%; The inhibitory ratio (%) for three parallel assays (A549 cells; 48 h, 80 μm): 15.33% and 19.67% and 18.00%; The mean inhibitory ratio (%) (A549 cells; 48 h, 80 μm): 17.67%; The inhibitory ratio (%) for three parallel assays (A549 cells; 48 h, 100 μm): 30.50% and 31.33% and 31.67%; The mean inhibitory ratio (%) (A549 cells; 48 h, 100 μm): 31.17%; The inhibitory ratio (%) for three parallel assays (A549 cells; 72 h, 10 μm): 9.82% and 8.11% and 15.05%; The mean inhibitory ratio (%) (A549 cells; 72 h, 10 μm): 10.99%; The inhibitory ratio (%) for three parallel assays (A549 cells; 72 h, 25 μm): 35.41% and 32.43% and 39.37%; The mean inhibitory ratio (%) (A549 cells; 72 h, 25 μm): 35.74%; The inhibitory ratio (%) for three parallel assays (A549 cells; 72 h, 40 μm): 50.18% and 45.68% and 50.45%; The mean inhibitory ratio (%) (A549 cells; 72 h, 40 μm): 48.77%; The inhibitory ratio (%) for three parallel assays (A549 cells; 72 h, 50 μm): 20.27% and 17.70% and 22.30%; The mean inhibitory ratio (%) (A549 cells; 72 h, 50 μm): 20.09%; The inhibitory ratio (%) for three parallel assays (A549 cells; 72 h, 80 μm): 29.59% and 28.51% and 30.14%; The mean inhibitory ratio (%) (A549 cells; 72 h, 80 μm): 29.41%; The inhibitory ratio (%) for three parallel assays (A549 cells; 72 h, 100 μm): 53.11% and 52.70% and 54.05%; The mean inhibitory ratio (%) (A549 cells; 72 h, 100 μm): 53.29%; The inhibitory ratio (%) for three parallel assays (H1299 cells; 4 h, 10 μm): 4% and 6%; The mean inhibitory ratio (%) (H1299 cells; 4 h, 10 μm): 4%; The inhibitory ratio (%) for three parallel assays (H1299 cells; 4 h, 25 μm): 6% and 7%; The mean inhibitory ratio (%) (H1299 cells; 4 h, 25 μm): 7%; The inhibitory ratio (%) for three parallel assays (H1299 cells; 4 h, 40 μm): 7% and 8%; The mean inhibitory ratio (%) (H1299 cells; 4 h, 40 μm): 8%; The inhibitory ratio (%) for three parallel assays (H1299 cells; 4 h, 50 μm): 13% and 9%; The mean inhibitory ratio (%) (H1299 cells; 4 h, 50 μm): 10%; The inhibitory ratio (%) for three parallel assays (H1299 cells; 4 h, 80 μm): 12% and 13%; The mean inhibitory ratio (%) (H1299 cells; 4 h, 80 μm): 12%; The inhibitory ratio (%) for three parallel assays (H1299 cells; 4 h, 100 μm): 13% and 15% and 14%; The mean inhibitory ratio (%) (H1299 cells; 4 h, 100 μm): 14%; The inhibitory ratio (%) for three parallel assays (H1299 cells; 24 h, 10 μm): 10% and 8% and 13%; The mean inhibitory ratio (%) (H1299 cells; 24 h, 10 μm): 11%; The inhibitory ratio (%) for three parallel assays (H1299 cells; 24 h, 25 μm): 14% and 13%; The mean inhibitory ratio (%) (H1299 cells; 24 h, 25 μm): 14%; The inhibitory ratio (%) for three parallel assays (H1299 cells; 24 h, 40 μm): 11% and 13% and 14%; The mean inhibitory ratio (%) (H1299 cells; 24 h, 40 μm): 13%; The inhibitory ratio (%) for three parallel assays (H1299 cells; 24 h, 50 μm): 20% and 25% and 26%; The mean inhibitory ratio (%) (H1299 cells; 24 h, 50 μm): 24%; The inhibitory ratio (%) for three parallel assays (H1299 cells; 24 h, 80 μm): 28% and 26% and 24%; The mean inhibitory ratio (%) (H1299 cells; 24 h, 80 μm): 26%; The inhibitory ratio (%) for three parallel assays (H1299 cells; 24 h, 100 μm): 29% and 31% and 26%; The mean inhibitory ratio (%) (H1299 cells; 24 h, 100 μm): 28%; The inhibitory ratio (%) for three parallel assays (H1299 cells; 48 h, 10 μm): 4% and 5% and 6%; The mean inhibitory ratio (%) (H1299 cells; 48 h, 10 μm): 5%; The inhibitory ratio (%) for three parallel assays (H1299 cells; 48 h, 25 μm): 15% and 18% and 14%; The mean inhibitory ratio (%) (H1299 cells; 48 h, 25 μm): 16%; The inhibitory ratio (%) for three parallel assays (H1299 cells; 48 h, 40 μm): 22% and 25%; The mean inhibitory ratio (%) (H1299 cells; 48 h, 40 μm): 23%; The inhibitory ratio (%) for three parallel assays (H1299 cells; 48 h, 50 μm): 24% and 26%; The mean inhibitory ratio (%) (H1299 cells; 48 h, 50 μm): 25%; The inhibitory ratio (%) for three parallel assays (H1299 cells; 48 h, 80 μm): 36% and 38%; The mean inhibitory ratio (%) (H1299 cells; 48 h, 80 μm): 37%; The inhibitory ratio (%) for three parallel assays (H1299 cells; 48 h, 100 μm): 42% and 41%; The mean inhibitory ratio (%) (H1299 cells; 48 h, 100 μm): 41%; The inhibitory ratio (%) for three parallel assays (H1299 cells; 72 h, 10 μm): 8% and 5% and 2%; The mean inhibitory ratio (%) (H1299 cells; 72 h, 10 μm): 5%; The inhibitory ratio (%) for three parallel assays (H1299 cells; 72 h, 25 μm): 7% and 4% and 3%; The mean inhibitory ratio (%) (H1299 cells; 72 h, 25 μm): 5%; The inhibitory ratio (%) for three parallel assays (H1299 cells; 72 h, 40 μm): 18% and 21% and 23%; The mean inhibitory ratio (%) (H1299 cells; 72 h, 40 μm): 20%; The inhibitory ratio (%) for three parallel assays (H1299 cells; 72 h, 50 μm): 26% and 23%; The mean inhibitory ratio (%) (H1299 cells; 72 h, 50 μm): 24%; The inhibitory ratio (%) for three parallel assays (H1299 cells; 72 h, 80 μm): 37% and 36% and 38%; The mean inhibitory ratio (%) (H1299 cells; 72 h, 80 μm): 37%; The inhibitory ratio (%) for three parallel assays (H1299 cells; 72 h, 100 μm): 45% and 41% and 39%; The mean inhibitory ratio (%) (H1299 cells; 72 h, 100 μm): 42%
